Data taken from patent publication US7258878B2, “Anti-microbial composition and methods of use thereof” (Kimberly-Clark Worldwide, Inc., priority 2004, dated 2007).
Where two headings read alike, the source gives them in different places.

Assays:
[1] = tested on: E. coli (ATCC 8739; Gram negative bacteria); assay: Zone of inhibition test against E. coli; format: cell-based, Escherichia coli; conditions: for zone of inhibition at 1000 µg/mL / zone of inhibition at 10000 µg/mL: Escherichia coli
Protocol: (§1) Natural compounds were evaluated for anti-microbial activity using the zone of inhibition test (ASTM E214901). The activity against five types of microorganisms: Staphylococcus aureus, Pseudomonas aeruginosa, Escherichia coli, Aspergillis niger and Candida albicans, was evaluated. These microorganisms represent gram positive and gram negative bacteria, fungi and yeast.
(§2) The compounds were tested for activity against E. coli (ATCC 8739; Gram negative bacteria), S. aureus (ATCC 6538; Gram positive bacteria), P. aeruginosa (ATCC 9027; Gram negative bacteria), C. albicans (ATCC 10231; yeast) and A niger (ATCC 16404; fungus) at 1 and 10 mg/ml concentrations by using the zone of inhibition method along with triclosan as a positive control.
(§3) The following natural compounds were tested for their anti-fungal properties: eucalyptol, cineole (SIGMA C-8144); gallic acid, 3,4,5-trihydroxybenzoic acid (SIGMA G-7384); methyl jasmonate, 95% (Aldrich 39270-7); and naringin: >95%, made from citrus fruit (SIGMA N-1376). A DMSO/water (75/25 by volume) mixture was used as the carrying solvent for each compound tested. The compounds were tested at 1 and 10 mg/ml concentrations by using the zone of inhibition method along with triclosan as a positive control.
(§4) Microorganism cultures of 10^5 cfu (colony forming units)/ml in a 1×PBS (phosphate buffered saline) solution were used. One ml of the solution was plated on a trypticase soy agar plate (TSA) and allowed to grow at 35° C. for four hours. 4 mm diameter wells were then punched in each TSA plate and 100 μl of each compound being tested was added to these wells. The plates were incubated overnight at 35° C. Lawn clearing was measured the next day as an indicator of antimicrobial activity.

[2] = tested on: S. aureus (ATCC 6538; Gram positive bacteria); assay: Zone of inhibition test against S. aureus; format: cell-based, Staphylococcus aureus; conditions: for zone of inhibition at 1000 µg/mL / zone of inhibition at 10000 µg/mL: Staphylococcus aureus
Protocol: as §1, §2, §3, §4

[3] = tested on: Lactobacillus acidophilus (ATCC 11975); assay: Zone of inhibition test against Lactobacillus acidophilus; format: cell-based; conditions: sample size 100 μl; for Zone of Inhibition: duplicate
Protocol: as §4
Five of these compounds were tested against Lactobacillus acidophilus (ATCC 11975). None of the compounds tested had antimicrobial activity against lactobacilli, a microorganism normally found in humans, specifically in the vagina. Due to their ability to derive lactic acid from glucose, these bacteria create an acidic environment that inhibits growth of many bacterial species that can lead to urogenital infections. Lactobacillus is generally harmless to humans, rarely inciting harmful infections or diseases. Thus, these compounds can be effectively utilized to develop products to address infections arising from Candida, Aspergillus and related species without destroying the normal balance of microbial species found in human gastrointestinal tract.
Gallic acid, 3,4,5-trihydroxybenzoic acid (SIGMA G-7384); eucalyptol, cineole (SIGMA C-8144); naringin: >95%, made from citrus fruit (SIGMA N-1376), and methyl jasmonate, 95% (Aldrich 39270-7) were tested in two concentrations (1 and 10 mg/ml) in DMSO:water (75:25) along with positive control (chlorhexidine 5 mg/ml in 75:25 DMSO:water) and a negative control (75:25 DMSO:water). All tests were conducted in duplicate in a zone of inhibition study (as described in Example 1).

[4] = tested on: A niger (ATCC 16404; fungus); assay: Zone of inhibition test against A. niger; format: cell-based, Aspergillis niger; conditions: for zone of inhibition at 1000 µg/mL / zone of inhibition at 10000 µg/mL: Aspergillus niger
Protocol: as §1, §2, §3, §4

[5] = tested on: C. albicans (ATCC 10231; yeast); assay: Zone of inhibition test against C. albicans; format: cell-based, Candida albicans; conditions: for zone of inhibition at 1000 µg/mL / zone of inhibition at 10000 µg/mL: Candida albicans; for Selective inhibition of C. albicans (conclusion in words): zone of inhibition, five organisms tested, 1 and 10 mg/ml
Protocol: as §1, §2, §3, §4

[6] = tested on: P. aeruginosa (ATCC 9027; Gram negative bacteria); assay: Zone of inhibition test against P. aeruginosa; format: cell-based, Pseudomonas aeruginosa; conditions: for zone of inhibition at 1000 µg/mL / zone of inhibition at 10000 µg/mL: Pseudomonas aeruginosa
Protocol: as §1, §2, §3, §4

[7] = ATCC8739, concentration 1 mg/ml, 100 μl per well, DMSO/water 75/25, read-out: Zone of inhibition E. coli
[8] = ATCC8739, concentration 10 mg/ml, 100 μl per well, DMSO/water 75/25
[9] = ATCC6538, concentration 1 mg/ml, 100 μl per well, DMSO/water 75/25, read-out: Zone of inhibition S. aureus
[10] = ATCC6538, concentration 10 mg/ml, 100 μl per well, DMSO/water 75/25
[11] = 1 mg/ml in DMSO:water 75:25, inoculum 5.8 × 10^5 CFU/ml
[12] = 10 mg/ml in DMSO:water 75:25, inoculum 5.8 × 10^5 CFU/ml
[13] = ATCC16404, concentration 1 mg/ml, 100 μl per well, DMSO/water 75/25, read-out: Zone of inhibition A. niger
[14] = ATCC16404, concentration 10 mg/ml, 100 μl per well, DMSO/water 75/25
[15] = ATCC10231, concentration 1 mg/ml, 100 μl per well, DMSO/water 75/25, read-out: Zone of inhibition C. albicans
[16] = ATCC10231, concentration 10 mg/ml, 100 μl per well, DMSO/water 75/25
[17] = ATCC9027, concentration 1 mg/ml, 100 μl per well, DMSO/water 75/25, read-out: Zone of inhibition P. aeruginosa
[18] = ATCC9027, concentration 10 mg/ml, 100 μl per well, DMSO/water 75/25
[19] = concentration 1 mg/ml, 100 μl per well, DMSO/water 75/25
[20] = concentration 10 mg/ml, 100 μl per well, DMSO/water 75/25

Compound: CC12CCC(CC1)C(C)(C)O2 [Eucalyptol, 1,3,3-Trimethyl-2-oxabicyclo[2,2,2]-octane]
- zone of inhibition at 1000 µg/mL [1, 7]: 0 mm
- zone of inhibition at 10000 µg/mL [1, 8]: 0 mm
- zone of inhibition at 1000 µg/mL [2, 9]: 0 mm
- zone of inhibition at 10000 µg/mL [2, 10]: 0 mm
- Zone of Inhibition [3, 11]: None
- Zone of Inhibition [3, 12]: None
- zone of inhibition at 1000 µg/mL [4, 13]: 0 mm
- zone of inhibition at 10000 µg/mL [4, 14]: 0 mm
- zone of inhibition at 1000 µg/mL [5, 15]: 3 mm
- zone of inhibition at 10000 µg/mL [5, 16]: 3 mm
- Selective inhibition of C. albicans (conclusion in words) [5]: selective inhibitors of C. albicans with no effect on the other four organisms tested
- zone of inhibition at 1000 µg/mL [6, 17]: 0 mm
- zone of inhibition at 10000 µg/mL [6, 18]: 0 mm

Compound: O=C(O)c1cc(O)c(O)c(O)c1 [Gallic acid, 3,4,5-trihydroxybenzoic acid]
- zone of inhibition at 1000 µg/mL [1, 7]: 0 mm
- zone of inhibition at 10000 µg/mL [1, 8]: 0 mm
- zone of inhibition at 1000 µg/mL [2, 9]: 0 mm
- zone of inhibition at 10000 µg/mL [2, 10]: 0 mm
- Zone of Inhibition [3, 11]: None
- Zone of Inhibition [3, 12]: None
- zone of inhibition at 1000 µg/mL [4, 13]: 0 mm
- zone of inhibition at 10000 µg/mL [4, 14]: 0 mm
- zone of inhibition at 1000 µg/mL [5, 15]: 5 mm
- zone of inhibition at 10000 µg/mL [5, 16]: 4 mm
- Selective inhibition of C. albicans (conclusion in words) [5]: selective inhibitors of C. albicans with no effect on the other four organisms tested
- zone of inhibition at 1000 µg/mL [6, 17]: 0 mm
- zone of inhibition at 10000 µg/mL [6, 18]: 0 mm

Compound: [H]/N=C(\N/C(=N/[H])NCCCCCCNC(=N)NC(=N)Nc1ccc(Cl)cc1)Nc1ccc(Cl)cc1 [Positive control, chlorhexidine, reference compound]
- zone of inhibition at 5000 µg/mL ([3]; Lactobacillus acidophilus, ATCC11975, positive control, chlorhexidine 5 mg/ml in 75:25 DMSO:water, inoculum 5.8 × 10^5 CFU/ml): 6 mm

Compound: CC/C=C\CC1C(=O)CCC1CC(=O)OC (centres unmarked) [Methyl jasmonate, methyl jasmonate]
- Zone of inhibition E. coli [1, 19]: 0 mm
- Zone of inhibition E. coli [1, 20]: 0 mm
- Zone of inhibition S. aureus [2, 19]: 0 mm
- Zone of inhibition S. aureus [2, 20]: 2 mm
- Zone of Inhibition [3, 11]: None
- Zone of Inhibition [3, 12]: None
- Zone of inhibition A. niger [4, 19]: 0 mm
- Zone of inhibition A. niger [4, 20]: 5 mm
- Selective inhibition of A. niger (conclusion in words) ([4]; zone of inhibition, five organisms tested, 1 and 10 mg/ml): selectively inhibit both C. albicans and A. niger
- Zone of inhibition C. albicans [5, 19]: 0 mm
- Zone of inhibition C. albicans [5, 20]: 7.5 mm
- Selective inhibition of C. albicans (conclusion in words) [5]: selectively inhibit both C. albicans and A. niger
- Zone of inhibition P. aeruginosa [6, 19]: 0 mm
- Zone of inhibition P. aeruginosa [6, 20]: 0 mm

Compound: C[C@@H]1O[C@@H](O[C@H]2[C@H](Oc3cc(O)c4c(c3)OC(c3ccc(O)cc3)CC4=O)O[C@H](CO)[C@@H](O)[C@@H]2O)[C@H](O)[C@H](O)[C@H]1O (stereo partly drawn) [Naringin, 7-[[2-O-(6-Deoxy-α-L-mannopyrano-syl)-β-D-glucopyranosyl]oxy]-2,3-dihydro-5-hydroxy-2-(4-hydroxyphenyl)-4H-1-benzopyran-4-one]
- Zone of inhibition E. coli [1, 19]: 0 mm
- Zone of inhibition E. coli [1, 20]: 0 mm
- Zone of inhibition S. aureus [2, 19]: 0 mm
- Zone of inhibition S. aureus [2, 20]: 0 mm
- Zone of Inhibition [3, 11]: None
- Zone of Inhibition [3, 12]: None
- Zone of inhibition A. niger [4, 19]: 0 mm
- Zone of inhibition A. niger [4, 20]: 0 mm
- Zone of inhibition C. albicans [5, 19]: 3 mm
- Zone of inhibition C. albicans [5, 20]: 3.5 mm
- Selective inhibition of C. albicans (conclusion in words) [5]: selective inhibitors of C. albicans with no effect on the other four organisms tested
- Zone of inhibition P. aeruginosa [6, 19]: 0 mm
- Zone of inhibition P. aeruginosa [6, 20]: 0 mm

Compound: Oc1cc(Cl)ccc1Oc1ccc(Cl)cc1Cl [Triclosan, triclosan, reference compound]
- zone of inhibition at 1000 µg/mL ([1]; ATCC8739, read-out: Zone of inhibition E. coli): 11 mm
- zone of inhibition at 1000 µg/mL ([2]; ATCC6538, read-out: Zone of inhibition S. aureus): 10 mm
- zone of inhibition at 1000 µg/mL ([4]; ATCC16404, read-out: Zone of inhibition A. niger): 10 mm
- zone of inhibition at 1000 µg/mL ([5]; ATCC10231, read-out: Zone of inhibition C. albicans): 8.5 mm
- zone of inhibition at 1000 µg/mL ([6]; ATCC9027, read-out: Zone of inhibition P. aeruginosa): 0 mm
